Results as given in patent publication US20240207427A1, “SELECTIVE DRUG RELEASE FROM INTERNALIZED CONJUGATES OF BIOLOGICALLY ACTIVE COMPOUNDS” (priority 2021, published 2024).
Where two headings read alike, the source gives them in different places.

What was measured:
Assay type in all cases: cell-based
melanoma cells (A2058) = test: In vitro potency (CellTiter-Glo, 96 h), A2058; settings: Homo sapiens, A2058, 96 h, read-out: A2058 IC50
Experimental: (§1) In vitro potency was assessed on multiple cancer cell lines. All cell lines were authenticated by STR profiling at IDEXX Bioresearch and cultured for no more than 2 months after resuscitation. Cells cultured in log-phase growth were seeded for 24 hours in 96-well plates containing […] RPMI 1640 supplemented with 20% FBS. Serial dilutions of antibody-drug conjugates in cell culture media were prepared at 4× working concentrations, and 50 μL of each dilution was added to the 96-well plates. Following addition of test articles, cells were incubated with test articles for 4 days at 37 0° C. After 96 hours, growth inhibition was assessed by CellTiterGlo® (Promega, Madison, WI) and luminescence was measured on a plate reader.
(§2) In Table 7, IC50 values for ADCs are given in ng/mL. Cell viability was determined by CellTiter-Glo staining after 96 h exposure to ADC. ND=Not Determined. Ag2 is an antibody targeting a ubiquitous and readily internalizable antigen. The cancer cell lines tested are renal carcinoma cells (786-0), melanoma cells (A2058), pancreatic cancer cells (BxPC3), non-small-cell lung cancer cells (Calu1), anaplastic large cell lymphoma cells (DEL, DELBVR, Karpas299), Hodgkin's lymphoma cells (L540cy), (Ls174T), breast cancer cells (MDA-MB-231), acute myeloid leukemia cells (MOLM-13), and B-lymphocyte cancer cells (SU-DHL4).
as §1, with “FBS.” for “FBS. Serial dilutions of antibody-drug conjugates in cell culture media were prepared at 4× working concentrations, and 50 μL of each dilution was added to the 96-well plates.”
(§3) Cell viability was determined by CellTiter-Glo staining after 96 h exposure to the compound. ND=Not Determined. The cancer cell lines tested are renal carcinoma cells (786-0), melanoma cells (A2058), pancreatic cancer cells (BxPC3), non-small-cell lung cancer cells (Calu1), anaplastic large cell lymphoma cells (DEL, DELBVR, Karpas299), Hodgkin's lymphoma cells (L540cy), (Ls 174T), breast cancer cells (MDA-MB-231), acute myeloid leukemia cells (MOLM-13), B-lymphocyte cancer cells (SU-DHL4), multiple myeloma cells (MM.1R), (U266), and melanoma cells (SK-MEL-5).
as §1, with “37°” for “37 0°”
(§4) In the following Tables IC50 values for ADCs and CPT free drugs are given in ng/mL and nmol/L concentrations. Cell viability was determined by CellTiter-Glo staining after 96 h exposure to ADC or CPT free drug.
(§5) Cell viability was determined by CellTiter-Glo staining after 96 h exposure to ADC. ND=Not Determined.

[1] = test system: renal carcinoma cells (786-O); test: In vitro potency (CellTiter-Glo, 96 h), 786-O; settings: Homo sapiens, 786-0, 96 h
Experimental: as §1, §2
as §1, with “FBS.” for “FBS. Serial dilutions of antibody-drug conjugates in cell culture media were prepared at 4× working concentrations, and 50 μL of each dilution was added to the 96-well plates.”
as §3
as §1, with “37°” for “37 0°”
as §4, §5

[2] = test system: Hodgkin's lymphoma cells (L540cy); test: In vitro potency (CellTiter-Glo, 96 h), L540cy
Experimental: as §1, §2
as §1, with “FBS.” for “FBS. Serial dilutions of antibody-drug conjugates in cell culture media were prepared at 4× working concentrations, and 50 μL of each dilution was added to the 96-well plates.”
as §3
as §1, with “37°” for “37 0°”
as §4, §5

[3] = test system: B-lymphocyte cancer cells (SU-DHL4); test: In vitro potency (CellTiter-Glo, 96 h), SU-DHL-4; settings: Homo sapiens, SU-DHL-4, 96 h
Experimental: as §1, §2
as §1, with “FBS.” for “FBS. Serial dilutions of antibody-drug conjugates in cell culture media were prepared at 4× working concentrations, and 50 μL of each dilution was added to the 96-well plates.”
as §3
as §1, with “37°” for “37 0°”
as §4, §5

[4] = test system: acute myeloid leukemia cells (MOLM-13); test: In vitro potency (CellTiter-Glo, 96 h), MOLM-13; settings: Homo sapiens, MOLM-13, 96 h
Experimental: as §1, §2
as §1, with “FBS.” for “FBS. Serial dilutions of antibody-drug conjugates in cell culture media were prepared at 4× working concentrations, and 50 μL of each dilution was added to the 96-well plates.”
as §3
as §1, with “37°” for “37 0°”
as §4, §5

Ls174T cells = test: In vitro potency (CellTiter-Glo, 96 h), Ls174T; settings: Homo sapiens, LS174T, 96 h
Experimental: as §1, §2
as §1, with “FBS.” for “FBS. Serial dilutions of antibody-drug conjugates in cell culture media were prepared at 4× working concentrations, and 50 μL of each dilution was added to the 96-well plates.”
as §3
as §1, with “37°” for “37 0°”
as §4, §5

[5] = test system: anaplastic large cell lymphoma cells (DEL); test: In vitro potency (CellTiter-Glo, 96 h), DEL
Experimental: as §1, §2
as §1, with “FBS.” for “FBS. Serial dilutions of antibody-drug conjugates in cell culture media were prepared at 4× working concentrations, and 50 μL of each dilution was added to the 96-well plates.”
as §3
as §1, with “37°” for “37 0°”
as §4, §5

[6] = test system: anaplastic large cell lymphoma cells (DELBVR); test: In vitro potency (CellTiter-Glo, 96 h), DELBVR
Experimental: as §1, §2
as §1, with “FBS.” for “FBS. Serial dilutions of antibody-drug conjugates in cell culture media were prepared at 4× working concentrations, and 50 μL of each dilution was added to the 96-well plates.”
as §3
as §1, with “37°” for “37 0°”
as §4, §5

[7] = test system: breast cancer cells (MDA-MB-231); test: In vitro potency (CellTiter-Glo, 96 h), MDA-MB-231; settings: Homo sapiens, MDA-MB-231, 96 h
Experimental: as §1, §2
as §1, with “FBS.” for “FBS. Serial dilutions of antibody-drug conjugates in cell culture media were prepared at 4× working concentrations, and 50 μL of each dilution was added to the 96-well plates.”
as §3
as §1, with “37°” for “37 0°”
as §4, §5

[8] = test system: anaplastic large cell lymphoma cells (Karpas299); test: In vitro potency (CellTiter-Glo, 96 h), Karpas299; settings: Homo sapiens, KARPAS-299, 96 h
Experimental: as §1, §2
as §1, with “FBS.” for “FBS. Serial dilutions of antibody-drug conjugates in cell culture media were prepared at 4× working concentrations, and 50 μL of each dilution was added to the 96-well plates.”
as §3
as §1, with “37°” for “37 0°”
as §4, §5

[9] = test system: pancreatic cancer cells (BxPC3); test: In vitro potency (CellTiter-Glo, 96 h), BxPC3; settings: Homo sapiens, BXPC-3, 96 h
Experimental: as §1, §2
as §1, with “FBS.” for “FBS. Serial dilutions of antibody-drug conjugates in cell culture media were prepared at 4× working concentrations, and 50 μL of each dilution was added to the 96-well plates.”
as §3
as §1, with “37°” for “37 0°”
as §4, §5

[10] = read-out: 786-O IC50, camptothecin free drug, 96 h
[11] = read-out: L540cy IC50, camptothecin free drug, 96 h
[12] = read-out: SU-DHL-4 IC50, camptothecin free drug, 96 h
[13] = read-out: MOLM-13 IC50, camptothecin free drug, 96 h
[14] = read-out: Ls174T IC50, camptothecin free drug, 96 h
[15] = read-out: DEL IC50, camptothecin free drug, 96 h
[16] = read-out: DELBVR IC50, camptothecin free drug, 96 h
[17] = read-out: MDAMB231 IC50, camptothecin free drug, 96 h
[18] = read-out: Karpas299 IC50, camptothecin free drug, 96 h
[19] = read-out: BxPC3 IC50, camptothecin free drug, 96 h

| Compound | IC50 (melanoma cells (A2058)) | IC50 [1, 10] | IC50 [2, 11] | IC50 [3, 12] | IC50 [4, 13] | IC50 (Ls174T cells; [14]) | IC50 [5, 15] | IC50 [6, 16] | IC50 [7, 17] | IC50 [8, 18] | IC50 [9, 19] | also measured |
| --- | --- | --- | --- | --- | --- | --- | --- | --- | --- | --- | --- | --- |
| CC[C@@]1(O)C(=O)OCc2c1cc1n(c2=O)Cc2c-1nc1cc3c(cc1c2CNC1CCOCC1)OCO3 [Compound 7k] | 14 nM | 57 nM | 20 nM | 19 nM | 34 nM | 67 nM | 6 nM | 14 nM | 207 nM | 46 nM | 63 nM | – |
| CC[C@@]1(O)C(=O)OCc2c1cc1n(c2=O)Cc2c-1nc1cc3c(cc1c2CNCCCN1CCN(C(=O)OC(C)(C)C)CC1)OCO3 [Compound 7m] | – | – | – | – | – | – | – | – | – | – | – | IC50 (melanoma cells (A2058); camptothecin free drug, 96 h): 58 nM; IC50 ([1]; camptothecin free drug, 96 h, read-out: 786-O IC50): 139 nM; IC50 ([2]; camptothecin free drug, read-out: L540cy IC50): 80 nM; IC50 ([3]; camptothecin free drug, 96 h, read-out: SU-DHL-4 IC50): 74 nM; IC50 ([4]; camptothecin free drug, 96 h, read-out: MOLM-13 IC50): 459 nM; IC50 (Ls174T cells; camptothecin free drug, read-out: Ls174T IC50): 222 nM; IC50 ([5]; camptothecin free drug, read-out: DEL IC50): 55 nM; IC50 ([6]; camptothecin free drug, read-out: DELBVR IC50): 54 nM; IC50 ([7]; camptothecin free drug, 96 h, read-out: MDAMB231 IC50): 700 nM; IC50 ([8]; camptothecin free drug, 96 h, read-out: Karpas299 IC50): 171 nM; IC50 ([9]; camptothecin free drug, 96 h, read-out: BxPC3 IC50): 173 nM |
| CC[C@@]1(O)C(=O)OCc2c1cc1n(c2=O)Cc2c-1nc1cc3c(cc1c2CNCCCN(C)C)OCO3 [Compound 7t] | 64 nM | 153 nM | 70 nM | 97 nM | 326 nM | > 1000 nM | 58 nM | 55 nM | 1000 nM | 166 nM | 171 nM | – |
| CC[C@@]1(O)C(=O)OCc2c1cc1n(c2=O)Cc2c-1nc1cc3c(cc1c2CNC[C@@H](O)CO)OCO3 [Compound 7u] | 19 nM | 122 nM | 60 nM | 66 nM | 456 nM | 86 nM | 26 nM | 50 nM | 707 nM | 128 nM | 108 nM | – |
| CC[C@@]1(O)C(=O)OCc2c1cc1n(c2=O)Cc2c-1nc1cc3c(cc1c2CNCCCN)OCO3 [Compound 7v] | 69 nM | 174 nM | 87 nM | 99 nM | > 1000 nM | 146 nM | 58 nM | 57 nM | 1000 nM | 132 nM | 225 nM | – |
